According to US20110112103A1, “5-HYDROXYPYRIMIDINE-4-CARBOXAMIDE COMPOUND” (DAIICHI SANKYO COMPANY, LIMITED, priority 2008, published 2011):

System: human liver cancer-derived cell line Hep3B
Test: in vitro erythropoietin (EPO) induction activity in Hep3B cells, EPO ELISA of culture supernatant
Type: cell-based
Settings: test compound 12.5 μM, 24 hours at 37° C., multiple against EPO concentration in control (0.5% DMSO)
Procedure: The in vitro erythropoietin (EPO) induction activity of test compounds was evaluated using human liver cancer-derived cell line Hep3B (ATCC, Manassas, Va.). Hep3B cells were cultured overnight at 37° C. in Dulbecco's Modified Eagle's Medium (DMEM) in the presence of 10% fetal bovine serum (FBS) (24-well plate, 1.0×10^5 cells/well). After replacing with fresh DMEM (+10% FBS) containing a test compound dissolved in 0.5% dimethyl sulfoxide (DMSO) (prepared to a concentration of 12.5 μM) or a solvent control (0.5% DMSO), the cells were cultured for 24 hours at 37° C. After recovering the culture supernatant, EPO concentration in the culture supernatant was quantified using a human EPO ELISA kit (StemCell Technologies). The compounds of Examples 1, 2, 5, 20, 43, 56, 100, 103, 109, 167, 173, 181, 193 and 198 were used for the test compounds. The EPO concentration of each Example was expressed as a multiple against the EPO concentration in the control.

In order of falling fold induction at 12.5 µM:
1. Cc1nc(CC2CCN(c3ccc(-c4ccccc4)cc3)CC2)nc(C(=O)NCC(=O)O)c1O [Example 43, {[(2-{[1-(Biphenyl-4-yl)piperidin-4-yl]methyl}-5-hydroxy-6-methylpyrimidin-4-yl)carbonyl]amino}acetic acid]  262
2. Cc1nc(CC2=CCN(c3ccc(C(C)(C)C)cc3)CC2)nc(C(=O)NCC(=O)O)c1O [Example 167, {[(2-{[1-(4-tert-Butylphenyl)-1,2,3,6-tetrahydropyridin-4-yl]methyl}-5-hydroxy-6-methylpyrimidin-4-yl)carbonyl]amino}acetic acid]  225
3. Cc1nc(Cc2ccc(-c3ccc(C(C)(C)C)cc3)nc2)nc(C(=O)NCC(=O)O)c1O [Example 173, {[(2-{[6-(4-tert-Butylphenyl)pyridin-3-yl]methyl}-5-hydroxy-6-methylpyrimidin-4-yl)-carbonyl]amino}acetic acid]  184
4. Cc1nc(CC2CCN(c3ccc(Cc4ccccc4)cc3)CC2)nc(C(=O)NCC(=O)O)c1O [Example 56, {[(2-{[1-(4-Benzylphenyl)piperidin-4-yl]methyl}-5-hydroxy-6-methylpyrimidin-4-yl)carbonyl]amino}acetic acid]  158
5. Cc1nc(Cc2cnc(-c3ccc(C(C)(C)C)cc3)nc2)nc(C(=O)NCC(=O)O)c1O [Example 181, {[(2-{[2-(4-tert-Butylphenyl)pyrimidin-5-yl]methyl}-5-hydroxy-6-methylpyrimidin-4-yl)-carbonyl]amino}acetic acid]  155
6. CSc1nc(CC2CCN(c3ccc(C(C)(C)C)cc3)CC2)nc(C(=O)NCC(=O)O)c1O [Example 193, ({[2-{[1-(4-tert-Butylphenyl)piperidin-4-yl]methyl}-5-hydroxy-6-(methylsulfanyl)pyrimidin-4-yl]carbonyl}amino)acetic acid]  147
7. Cc1nc(CC2CCN(c3ccc(-c4nccs4)cc3)CC2)nc(C(=O)NCC(=O)O)c1O [Example 109, ({[5-Hydroxy-6-methyl-2-({1-[4-(1,3-thiazol-2-yl)phenyl]piperidin-4-yl}methyl)pyrimidin-4-yl]carbonyl}amino)acetic acid]  142
8. Cc1nc(CC2CCN(c3ccc(C(F)(F)F)cc3)CC2)nc(C(=O)NCC(=O)O)c1O [Example 20, ({[5-Hydroxy-6-methyl-2-({1-[4-(trifluoromethyl)phenyl]piperidin-4-yl}methyl)pyrimidin-4-yl]carbonyl}amino)acetic acid]  127
9. Cc1nc(C[C@H]2OC[C@H](c3ccc(-c4ccccc4)cc3)CO2)nc(C(=O)NCC(=O)O)c1O [Example 198, {[(2-{[trans-5-(Biphenyl-4-yl)-1,3-dioxan-2-yl]methyl}-5-hydroxy-6-methylpyrimidin-4-yl)-carbonyl]amino}acetic acid]  108
10. Cc1nc(CC2CCN(c3ccc(-c4ccccn4)cc3)CC2)nc(C(=O)NCC(=O)O)c1O [Example 100, ({[5-Hydroxy-6-methyl-2-({1-[4-(pyridin-2-yl)phenyl]piperidin-4-yl}methyl)pyrimidin-4-yl]carbonyl}amino)acetic acid]  104
11. Cc1nc(CC2CCN(c3ccc(-c4cccnc4)cc3)CC2)nc(C(=O)NCC(=O)O)c1O [Example 103, ({[5-Hydroxy-6-methyl-2-({1-[4-(pyridin-3-yl)phenyl]piperidin-4-yl}methyl)pyrimidin-4-yl]carbonyl}amino)acetic acid]  100
12. Cc1nc(CC2CCN(c3ccc(C(C)(C)C)cc3)CC2)nc(C(=O)NCC(=O)O)c1O [Example 1]  98
13. Cc1nc(CC2CCN(c3ccccc3)CC2)nc(C(=O)NCC(=O)O)c1O [Example 2, [({5-Hydroxy-6-methyl-2-[(1-phenylpiperidin-4-yl)methyl]pyrimidin-4-yl}carbonyl)amino]acetic acid]  37
14. Cc1nc(CC2CCN(c3ccc(F)cc3)CC2)nc(C(=O)NCC(=O)O)c1O [Example 5, {[(2-{[1-(4-Fluorophenyl)piperidin-4-yl]methyl}-5-hydroxy-6-methylpyrimidin-4-yl)carbonyl]amino}acetic acid]  29

System: not given
Test: not given
Settings: not given

First: Cc1nc(CC2(C)CCN(c3ccc(F)cc3)CC2)nc(C(=O)NCC(=O)O)c1O [Example 186, {[(2-{[1-(4-Fluorophenyl)-4-methylpiperidin-4-yl]methyl}-5-hydroxy-6-methylpyrimidin-4-yl)carbonyl]amino}acetic acid]
Second: Cc1nc(C[C@H]2OC[C@H](c3ccc(F)cc3)CO2)nc(C(=O)NCC(=O)O)c1O [Example 196, {[(2-{[trans-5-(4-Fluorophenyl)-1,3-dioxan-2-yl]methyl}-5-hydroxy-6-methylpyrimidin-4-yl)carbonyl]amino}acetic acid]
The melting point of the first is lower: 140 to 141 °C for the first, 209 °C for the second.
